Results on two compounds are retold here after article PMC12375108 (Nature Communications, 2025).

Holding throughout (format): binding
Assay [1] concerns the target T1, T. marianensis hinT H100N (Tm hinT^HN) (Thermaerobacter marianensis, UniProt E6SKA2, H100N).
T1 construct: gene Tmar_2180; expressed from pProEx in E. coli BL21, 6xHis cut by TEV, SEC
The experiment in a line: isothermal titration calorimetry. In general terms: ITC needs no label: the signal is the heat of the interaction.

For assay [2], the target named is T2, H. sapiens hinT H112N (human hinT^HN) (Homo sapiens, UniProt P49773, H112N).
T2 construct: gene HINT1
T2 sequence (P49773 1-126 H112N): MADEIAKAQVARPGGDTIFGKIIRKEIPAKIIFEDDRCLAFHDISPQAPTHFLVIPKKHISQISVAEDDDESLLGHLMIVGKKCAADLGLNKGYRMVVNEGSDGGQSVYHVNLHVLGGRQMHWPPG
The experiment in a line: isothermal titration calorimetry.

The target of assay [3] is T3, E. coli hinT H101N (Ec hinT^HN) (Escherichia coli, UniProt P0ACE7, H101N).
T3 construct: expressed from pProEx in E. coli BL21, 6xHis cut by TEV, SEC; ATG replaces native TTG start
T3 sequence (P0ACE7 1-119 H101N): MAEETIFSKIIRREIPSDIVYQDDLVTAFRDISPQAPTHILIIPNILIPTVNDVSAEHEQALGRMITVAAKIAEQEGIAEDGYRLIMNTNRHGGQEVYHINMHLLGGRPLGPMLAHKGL
The experiment in a line: isothermal titration calorimetry.

In assay [4] the target is T2, H. sapiens hinT H112N (human hinT^HN). The experiment in a line: competition pulldown with sucA-AMP, α-AMP immunoblot. The conditions noted are these: GST-tagged hinT on beads, sucA-AMP 470 nM, GMP up to 11.75 μM, TBS with Triton X-100, 1 mM DTT, 4 °C; competitive.

pKd: −log10 of the molar value.

Usually pKd stands for the Kd on a negative log10 scale, so that one unit is a factor of ten. High values mean a low Kd, low ones a high Kd. Take `Nc1ncnc2c1ncn2[C@@H]1O[C@H](COP(=O)(O)O)[C@@H](O)[C@H]1O` [AMP]: the results for the pKd in assay [1], in assay [2] and in assay [3] were 5.52, 6.55 and 4.16, respectively.

Take `Nc1nc2c(ncn2[C@@H]2O[C@H](COP(=O)(O)O)[C@@H](O)[C@H]2O)c(=O)[nH]1` [GMP]: the “competition pulldown with sucA-AMP, α-AMP immunoblot” value in assay [4] is listed as “increasing concentrations of GMP showed weaker competition with AMPylated proteins for binding to Hs hinT^HN”.
